Test results from paper PMC9898996 (Bioorganic & medicinal chemistry, 2022).

Legend:
human D2 receptor [1] = target: T1, human D2 receptor (Homo sapiens, UniProt P14416)
rat D2L receptor = rat D2L receptor (Rattus norvegicus, UniProt P61169); format: binding
PC12 cells = test: MTT viability of PC12 cells treated with α-syn seeded samples; format: cell-based; settings: samples collected at 0D; drug 20 μM, 24 h
α-syn = α-syn (Homo sapiens, UniProt P37840); test: ThT assay of α-syn aggregation induced by seeding with 0.5% PFFs; format: biochemical; settings: 1.25 mg/mL α-syn + 0.5% PFFs, 30D without shaking, drug 172.9 μM
human D2 receptor [2] = target: T1, human D2 receptor; settings: [35S]GTPγS, D2 receptors

rat D2L receptor, sequence (P61169 whole entry): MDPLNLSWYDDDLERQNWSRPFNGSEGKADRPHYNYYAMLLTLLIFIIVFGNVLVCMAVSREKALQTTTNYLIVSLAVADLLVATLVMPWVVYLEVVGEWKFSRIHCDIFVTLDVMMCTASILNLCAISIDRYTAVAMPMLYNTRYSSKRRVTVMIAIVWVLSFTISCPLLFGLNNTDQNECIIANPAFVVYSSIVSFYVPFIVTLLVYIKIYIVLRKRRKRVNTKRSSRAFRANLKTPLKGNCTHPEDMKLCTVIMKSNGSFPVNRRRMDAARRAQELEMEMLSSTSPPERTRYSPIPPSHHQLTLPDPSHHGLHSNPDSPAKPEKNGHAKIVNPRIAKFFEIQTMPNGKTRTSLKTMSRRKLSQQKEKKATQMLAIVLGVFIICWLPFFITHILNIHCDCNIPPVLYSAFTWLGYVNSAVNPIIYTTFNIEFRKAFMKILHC
T1 sequence (P14416 whole entry): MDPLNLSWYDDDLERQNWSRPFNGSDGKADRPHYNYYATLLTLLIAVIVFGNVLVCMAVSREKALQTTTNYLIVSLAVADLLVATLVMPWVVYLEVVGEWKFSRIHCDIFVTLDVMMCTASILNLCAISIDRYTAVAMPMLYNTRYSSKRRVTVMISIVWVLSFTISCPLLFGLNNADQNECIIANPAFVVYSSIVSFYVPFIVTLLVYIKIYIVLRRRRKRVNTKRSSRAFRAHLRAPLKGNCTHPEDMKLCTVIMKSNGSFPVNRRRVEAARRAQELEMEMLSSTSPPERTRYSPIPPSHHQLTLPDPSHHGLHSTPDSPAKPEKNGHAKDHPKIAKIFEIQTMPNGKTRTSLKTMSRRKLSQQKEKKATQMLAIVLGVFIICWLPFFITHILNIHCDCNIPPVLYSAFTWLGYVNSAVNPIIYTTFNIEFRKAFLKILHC

`CCCN(CCC)C1CCc2c(O)cccc2C1` (single isomer, unassigned; (-)) [(−)-5-OH-DPAT, 5-OH-DPAT] gave an Emax (human D2 receptor [1]) of 80 ± 4%.
For `CCCN(CC(=O)N1CCN(C(=O)CN(CCC)[C@H]2CCc3c(O)cccc3C2)CC1)[C@H]1CCc2c(O)cccc2C1` [Compound D-380, (s)-1,1’-(piperazine-1,4-diyl)bis(2-(((s)-5-hydroxy-1,2,3,4-tetrahydronaphthalen-2-yl)(propyl)amino)ethanone)], the “Activity at DA receptors (binding, in words)” value (rat D2L receptor; D2/D3 receptor binding) was “little to no activity” and the “Inhibition of [3H]spiroperidol binding, D2L” value (rat D2L receptor; at 100 μM, cloned rat D2L in HEK-293 cells) was “No Inhibition at 100 μM”.
In the case of `CCCN(CCc1ccc(CCN(CCC)[C@H]2CCc3c(O)cccc3C2)cc1)[C@H]1CCc2c(O)cccc2C1` [Compound D-382, (6s,6’s)-6,6’-(2,2’-(1,4-phenylene)bis(ethane-2,1-diyl))bis(propylazanediyl)bis(5,6,7,8-tetrahydronaphthalen-1-ol)], the “Increase in affinity for D2 receptors compared to D-381” value (rat D2L receptor; binding, D2 receptors) is reported as “greater than threefold increase”.
For `Br.Br.CCCN(CCc1cc(O)c(CCN(CCC)[C@H]2CCc3c(O)cccc3C2)cc1O)[C@H]1CCc2c(O)cccc2C1` [Compound D-666, 2,5-Bis(2-(((S)-5-hydroxy-1,2,3,4-tetrahydronaphthalen-2-yl)(propyl)amino)ethyl)benzene-1,4-diol], the “Toxicity of compound by itself (PC12 viability, MTT)” value (PC12 cells) was “do not see such toxicity” and the “Inhibition of α-syn aggregation (ThT signal)” value (α-syn) was “inhibited the aggregation completely”.
`CCCN(CCc1cc(O)c(CCN(CCC)[C@H]2CCc3nc(N)sc3C2)cc1O)[C@H]1CCc2nc(N)sc2C1` [Compound D-673, 2,5-bis(2-(((S)-2-amino-4,5,6,7-tetrahydrobenzo[d]thiazol-6-yl)(propyl)amino)-ethyl)benzene-1,4-diol] was tested, and the “D2 functional potency compared to pramipexole” value (human D2 receptor [2]) was “more than 7 fold”, the “Toxicity of compound by itself (PC12 viability, MTT)” value (PC12 cells) was “shows toxicity” and the “Inhibition of α-syn aggregation (ThT signal)” value (α-syn) was “inhibited the aggregation completely”.
